Test results from paper PMC11292626, “5-Fluoroindole Reduces the Bacterial Burden in a Murine Model of Mycobacterium tuberculosis Infection” (ACS Omega, 2024).
≈ marks a conversion by molar mass, not a printed value.

How the values were obtained:
Assay in all cases: microbe, parasite or virus in culture
Type in all cases: cell-based
[1] = tested on: M. tuberculosis PT20 strain; settings: Mycobacterium tuberculosis, PT20STRAIN, read-out: MIC PT20
[2] = tested on: M. tuberculosis PT12 strain; settings: Mycobacterium tuberculosis, PT12STRAIN, read-out: MIC PT12
[3] = tested on: M. tuberculosis PT2 strain; settings: Mycobacterium tuberculosis, PT2STRAIN, read-out: MIC PT2

SMILES	MIC [1] [µM]	MIC [2] [µM]	MIC [3] [µM]
Fc1ccc2[nH]ccc2c1 [Compound 1, 5-Fluoroindole]	4.7 (≈ 0.635 µg/mL)	4.7 (≈ 0.635 µg/mL)	4.7 (≈ 0.635 µg/mL)
NNC(=O)c1ccncc1 [INH, isoniazid, reference compound]	–	146 (≈ 20 µg/mL)	–
